Results from patent US20260263361A1, “CANNABIDIOL AQUEOUS SOLUTION COMPOSITION AND CANNABIDIOL-CONTAINING PHARMACEUTICAL PREPARATION COMPRISING SAME” (priority 2023, published 2026).

How the values were obtained:
[1] = Long-term stability of CBD-containing film: CBD content by HPLC after storage under harsh conditions; assay type: physicochemical
Method: The long-term stability of the orally disintegrating film of Example 2, having the composition of Table 6, was evaluated.
For comparison, the long-term stability of CBD in the orally disintegrating film containing CBD-prepared according to the composition shown in Table 7 and corresponding to Korean Patent Application No. 10-2019-0097649—was evaluated as Comparative Example 2.
Immediately after film formation, the films were packaged in airtight containers and left under harsh conditions for 0, 24, and 72 hours, after which the CBD content was analyzed by high-performance liquid chromatography (HPLC).
Additionally, further experiments were conducted to increase the stability of the orally disintegrating film of the current Example 2.

[2] = Primary solubilizer mixed with an additional solubilizer, extent of CBD dissolution observed; assay type: physicochemical
Method: Due to the compatibility required between ingredients for use in the CBD aqueous solution formulation, additional solubilizerswere mixed with the selected primary components, and the extent of CBD dissolution was evaluated.

| Structure (SMILES) | Decrease (24 hrs, %) ([1]; 24 hrs vs 0 hr) | CBD content 0 hr ([1]; airtight container, 0 hr, HPLC) | CBD content 24 hr ([1]; airtight container, 24 hr, HPLC) | state of CBD in aqueous solution (FIG. 1) [2] |
| --- | --- | --- | --- | --- |
| C=C(C)[C@@H]1CCC(C)=C[C@H]1c1c(O)cc(CCCCC)cc1O [CBD isolate powder, 2-[(1R,6R)-3-methyl-6-(1-methylethenyl)-2-cyclohexen-1-yl]-5-pentyl-1,3-benzenediol] | 0.28% | 103.58 | 103.86 | – |
| OCC(O)CO [Glycerin] | – | – | – | not dissolved and appeared as precipitate or crystals |
